Some test systems named below: CAKI-1 renal; COLO 205 colon; EKVX NSCLC; HCC-2998 colon; HL-60(TB) leukemia; HS 578T breast; HT29 colon; K-562 leukemia; LOX IMVI melanoma; MDA-MB-435; MOLT-4 leukemia; NCI/ADR-RES ovarian; OVCAR-8 ovarian; RPMI-8226 leukemia; SF-268 CNS; SF-539 CNS; SW-620 colon; TK-10 renal; U251 CNS; SR leukemia.
Common to all, as to assay: NCI-60 cell line screen, 48 h

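All cell lines were grown in 96-well plates and treated with compound for 48 hours. TGI marks complete inhibition of growth.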

With `CN(CC(=O)N1CC(CCl)c2ccc([N+](=O)[O-])cc21)CC(=O)N1CC(CCl)c2ccc([N+](=O)[O-])cc21` (stereo not drawn), the TGI in the experiment on CAKI-1 renal, in the experiment with COLO 205 colon, in the experiment on EKVX NSCLC, with HCC-2998 colon, in the experiment with HL-60(TB) leukemia and in the experiment on HS 578T breast was > 100 µM each time. Further, the TGI in the experiment on HT29 colon, in the experiment with K-562 leukemia, in the experiment on LOX IMVI melanoma, with MDA-MB-435, in the experiment with MOLT-4 leukemia and with NCI/ADR-RES ovarian was > 100 µM throughout. Besides, the TGI in the experiment on OVCAR-8 ovarian, in the experiment on RPMI-8226 leukemia, with SF-268 CNS, in the experiment with SF-539 CNS, with SW-620 colon and with TK-10 renal was > 100 µM in each case. The TGI in the experiment with U251 CNS was > 100 µM.

Consider `Cc1sc(Nc2ccc(Nc3nc(-c4ccccc4)c(C)s3)cc2)nc1-c1ccccc1`, for which the TGI was > 100 µM with CAKI-1 renal; 42.1 µM in the experiment on COLO 205 colon; > 100 µM with EKVX NSCLC; 50.5 µM in the experiment with HCC-2998 colon; > 100 µM with HS 578T breast; > 100 µM in the experiment with HT29 colon. Moreover, the TGI with K-562 leukemia, with LOX IMVI melanoma, in the experiment on MDA-MB-435, in the experiment on MOLT-4 leukemia, in the experiment on NCI/ADR-RES ovarian and in the experiment on OVCAR-8 ovarian was > 100 µM each time. Also, the TGI with SF-268 CNS was > 100 µM; in the experiment on SF-539 CNS, 70.6 µM; with SR leukemia, > 100 µM; in the experiment on SW-620 colon, > 100 µM; in the experiment with TK-10 renal, > 100 µM; in the experiment with U251 CNS, 49.6 µM.

On to `Cc1ccc(N=N/C(=N/NC(=O)c2cc(Cl)ccc2O)c2ccc(N(CCC#N)CCC#N)cc2C)cc1`, for which the TGI in the experiment on CAKI-1 renal is > 100 µM; with COLO 205 colon, 44.2 µM; in the experiment on EKVX NSCLC it was > 100 µM; in the experiment on HCC-2998 colon it was 68.5 µM; in the experiment on HL-60(TB) leukemia, > 100 µM; in the experiment on HS 578T breast, 46.4 µM. The TGI with HT29 colon was 60.6 µM; in the experiment with K-562 leukemia it was > 100 µM; in the experiment on MDA-MB-435, > 100 µM; in the experiment with MOLT-4 leukemia, > 100 µM; in the experiment with NCI/ADR-RES ovarian, > 100 µM; in the experiment on OVCAR-8 ovarian, 54.7 µM. The TGI in the experiment with RPMI-8226 leukemia is > 100 µM; in the experiment with SF-268 CNS it was > 100 µM; in the experiment with SF-539 CNS it was 46.4 µM; in the experiment on SR leukemia it was > 100 µM; in the experiment with TK-10 renal it was 87.2 µM; in the experiment with U251 CNS it was > 100 µM.

On to `S=C(N1CCN(c2ccc(Cl)c(Cl)c2)CC1)N1CCN(c2ccc(Cl)c(Cl)c2)CC1`, for which the TGI in the experiment with CAKI-1 renal came to 20.4 µM; in the experiment with COLO 205 colon, 22.4 µM; in the experiment with EKVX NSCLC, 15.2 µM; with HCC-2998 colon, 26.6 µM; in the experiment on HS 578T breast, 26 µM; with HT29 colon it was 21.3 µM. Moreover, the TGI was 26.7 µM in the experiment on K-562 leukemia; 29 µM in the experiment with MDA-MB-435; 19.9 µM in the experiment on MOLT-4 leukemia; 30.3 µM in the experiment with NCI/ADR-RES ovarian; 28.3 µM with OVCAR-8 ovarian; 39.4 µM in the experiment with RPMI-8226 leukemia. Also, the TGI came to 32.4 µM in the experiment with SF-268 CNS; 5.82 µM with SR leukemia; 33.8 µM with SW-620 colon; 26.1 µM with TK-10 renal; 28 µM in the experiment with U251 CNS.

For the compound `CN(C)c1ccc(C2CC(c3ccc4ccccc4c3O)=NN2)cc1` (stereo not drawn), the TGI was > 100 µM in the experiment with CAKI-1 renal; 51.5 µM in the experiment with COLO 205 colon; > 100 µM in the experiment with HCC-2998 colon; > 100 µM in the experiment with HS 578T breast; > 100 µM in the experiment with HT29 colon; 90.2 µM in the experiment on K-562 leukemia. Further, the TGI is > 100 µM in the experiment with MDA-MB-435; 92 µM with MOLT-4 leukemia; > 100 µM with NCI/ADR-RES ovarian; > 100 µM in the experiment on OVCAR-8 ovarian; > 100 µM with RPMI-8226 leukemia; > 100 µM in the experiment with SF-268 CNS. Besides, the TGI with SF-539 CNS was 70.5 µM; in the experiment on SR leukemia it was 51.7 µM; in the experiment with SW-620 colon, > 100 µM; in the experiment with TK-10 renal, > 100 µM; in the experiment on U251 CNS, > 100 µM.

Turning to `CC(=O)Oc1c(C)c2c(c3ncccc13)OC(C)C2` (stereo not drawn), the TGI in the experiment with CAKI-1 renal came to 27.8 µM; in the experiment with COLO 205 colon, 35.7 µM; in the experiment with EKVX NSCLC, 30.8 µM; in the experiment on HCC-2998 colon, 28.7 µM; in the experiment on HL-60(TB) leukemia, 38.8 µM; in the experiment on HS 578T breast, 59.4 µM. For the same compound, the TGI stood at 36.8 µM in the experiment on HT29 colon; 35.5 µM in the experiment with K-562 leukemia; 19 µM in the experiment with MDA-MB-435; 25.9 µM with MOLT-4 leukemia; 35.9 µM with NCI/ADR-RES ovarian; 27.5 µM with OVCAR-8 ovarian. The TGI in the experiment on RPMI-8226 leukemia was 45.1 µM; in the experiment on SF-268 CNS it was 28.8 µM; with SF-539 CNS it was 28.7 µM; with SR leukemia, 22.7 µM; with SW-620 colon it was 27.2 µM; in the experiment on TK-10 renal, 49.2 µM. The compound also showed a TGI in the experiment with U251 CNS of 28.8 µM.

For the compound `CC(=O)Nc1oc(C)c(C)c1S(=O)(=O)c1ccc(Cl)cc1`, the TGI in the experiment on COLO 205 colon was > 100 µM; in the experiment on EKVX NSCLC it was > 100 µM; in the experiment with HCC-2998 colon it was > 100 µM; in the experiment on HL-60(TB) leukemia it was > 100 µM; with HS 578T breast, 93.6 µM; with HT29 colon, > 100 µM. In addition, the TGI with K-562 leukemia, with MDA-MB-435, in the experiment with MOLT-4 leukemia, in the experiment on NCI/ADR-RES ovarian, in the experiment on OVCAR-8 ovarian and in the experiment with RPMI-8226 leukemia was > 100 µM in each case. The TGI in the experiment with SF-268 CNS, in the experiment with SF-539 CNS, in the experiment on SR leukemia, in the experiment with SW-620 colon, with TK-10 renal and in the experiment on U251 CNS was > 100 µM each time.

On to `O=C(NC(=S)Nc1ccc(Br)cc1)c1ccc2c(c1)Sc1ccccc1S2`, for which the TGI with CAKI-1 renal is 38.2 µM; with COLO 205 colon it was > 100 µM; in the experiment on HL-60(TB) leukemia, 42.7 µM; in the experiment with HS 578T breast, 59.7 µM; in the experiment on HT29 colon it was 95.1 µM; in the experiment on K-562 leukemia, 24.5 µM. The TGI in the experiment on LOX IMVI melanoma was 61.4 µM; in the experiment on MDA-MB-435, > 100 µM; in the experiment with MOLT-4 leukemia, 26.7 µM; in the experiment with NCI/ADR-RES ovarian, 55.9 µM; in the experiment on OVCAR-8 ovarian it was 34.7 µM; with SF-268 CNS, 46.4 µM. The TGI in the experiment on SF-539 CNS is 53.5 µM; in the experiment on SR leukemia, 35.5 µM; with SW-620 colon, > 100 µM; in the experiment on TK-10 renal it was 30.9 µM; in the experiment with U251 CNS, 35 µM.

Source of the values: PubChem BioAssay (NCI).
